Measured values: patent US10369123B2, “Perk activator for the treatment of neurodegenerative diseases” (DEUTSCHES ZENTRUM FÜR NEURODEGENERATIVE ERKRANKUNGEN E.V. …, priority 2014, dated 2019)

How the values were obtained:
[1] = test system: 3R/4R MAPT mRNA, splicing factor SRSF2; experiment: Quantitative PCR of MAPT isoforms and splicing factors, annonacin model; assay type: cell-based, human; settings: annonacin + PERK activator
Description: (§1) Nunc™ Nunclon™ Delta 6-well (for protein and mRNA) or 48-well (for cell assays) plates (Thermo Fisher Scientific, Waltham, Mass., USA) were coated with 100 μg/ml poly-L-lysine (Sigma-Aldrich, St. Louis, Mo., USA) and 5 μg/ml fibronectin (Sigma-Aldrich). LUHMES (Lund Human Mesencephalic) cells, derived from human embryonic ventral mesencephalic cells by conditional immortalization (Tet-off v-myc over-expression) were seeded out in a concentration of 130,000 cells/cm^2 to achieve a confluence of 50%. They were then differentiated for 8 days in a medium of DMEM/F12 (Sigma-Aldrich), 1 μg/ml tetracycline, […] and 490 μg/ml dbcAMP into post-mitotic neurons with a dopaminergic phenotype (Lotharius et al. 2005).
(§2) For all experiments with annonacin, the medium was replaced during the intoxication period with new medium containing glucose levels reduced to 250 μM, i.e. the physiological concentration in the human brain.
RNA from human tissue samples was extracted by grinding the tissue in liquid nitrogen to a powder and then dissolving it in the RA1 buffer supplied as part of the NucleoSpin® RNA (Macherey Nagel) RNA extraction kit+1% (v/v) 2-mercaptoethanol (Sigma-Aldrich). RNA from cells was extracted by scraping the cells from the culture plate with RA1 buffer+1% (v/v) 2-mercaptoethanol. The remaining extraction procedure was according to the manufacturer's instructions for the NucleoSpin® RNA kit. RNA concentrations were determined using the NanoDrop 2000c Spectrophotometer. The RNA was then transcribed into cDNA with the iScript™ cDNA Synthesis Kit (BioRad) using the manufacturer's instructions. Real-Time PCR was performed on the Applied Biosystems® StepOnePlus™ (Life Technologies) system using TagMan® Universal Master Mix II and TaqMan® primers against total MAPT, MAPT 3R, MAPT 4R, EIF2A, EI2AK3 and ATF4. POL2A and PSCM1 served as reference targets as they were determined to be the most stably expressed across experimental conditions. The results were analyzed using the StepOne Plus software (Life Technologies) and Qbase software (Biogazelle) and were then graphically and statistically analyzed with Prism 6 (GraphPad Software). Absolute quantification was performed by creating a standard curve with plasmids containing either the 2N3R or the 2N4R spliced variant of MAPT (see Table 2). The absolute quantity was computed by deriving the relationship between CT values and absolute quantity with the StepOne Plus software.

tau = experiment: Western blot of tau phosphorylation, 4R-tau overexpression model; assay type: cell-based, human; settings: 4R-tau overexpressing lentivirus 8 days + PERK activator
Description: as §1, §2
Concentrated lentiviral particles were titrated by transducing LUHMES cells with different dilutions at 6 hours after initiating differentiation. The lowest dilution at which at least 90% of cells expressed the transgene (as determined by immunohistochemistry of the cells fixed on day 2 post differentiation) was chosen for subsequent experiments. For these, concentrated lentiviral particles were again added into the medium on day 0, 6 hours after initiating differentiation.
Protein was extracted by scraping the cells from the culture plate with Mammalian Protein Extraction Reagent (M-PER, Thermo Fisher Scientific) and 1× cOmplete Protease Inhibitor Cocktail Tablets (Hoffmann-La Roche, Basel, Switzerland) and 1× PhosSTOP Phosphatase Inhibitor Cocktail Tablets (Hoffmann-La Roche). For pNRF2 blots, cells were extracted with 2% SDS tris-buffer instead of M-PER in order to obtain whole cell extracts and not to lose the nuclear fraction. […] Protein concentrations were determined using the BCA kit (Thermo Fisher Scientific) by heating the samples at 60° C. for 30 min and measuring the absorption on the NanoDrop 2000c Spectrophotometer (Thermo Fisher Scientific). […]

CCN(CC)CCC(=O)N1N=C(c2c(-c3ccccc3)c3cc(Br)ccc3[nH]c2=O)CC1c1ccc(Br)cc1 (centres unmarked) [CCT020312, 6-bromo-3-[5-(4-bromo-phenyl)-1-(3-diethylamino-propionyl)-4,5-dihydro-1H-pyrazol-3-yl]-4-phenyl-1H-quinolin-2-one]
annonacin-induced increase of splicing factor SRSF2 [1]: significantly reduced | 4R-tau mRNA amount ([1]; 48 h): reduced | AD2-positive tau (tau): not altered | CP13 (Ser-202) phosphorylated tau (tau): significantly reduced | HT7-positive tau (tau): not altered
